Literature values, collected in patent publication US20230330126A1, “MODIFIED ADENOSINE NUCLEOSIDE FOR USE IN THE TREATMENT OF VIRAL INFECTIONS” (priority 2020, published 2023).

What was measured:
[1] = animal and human studies

| Structure (SMILES) | efficacy compared with theophylline [1] | tolerability profile compared with theophylline [1] | half-life |
| --- | --- | --- | --- |
| Cn1c(=O)c2c(ncn2CC2OCCO2)n(C)c1=O [doxofylline, Doxofylline] | comparable efficacy to that of theophylline | better tolerability profile, with significantly fewer side effects |  |
| O=c1[nH]cnc2c1ncn2[C@@H]1O[C@H](CO)[C@@H](O)[C@H]1O [inosine, Inosine] |  |  | 15 h |
